Reference: patent publication US20220273716A1, “POPULATIONS OF NATURAL KILLER CELLS COMPRISING A CD38 CHIMERIC ANTIGEN RECEPTOR” (Celularity Inc., priority 2019, published 2022)
Entries after “also recorded” stand apart in the source; their conditions may differ. Like-named read-outs stand apart in the source and are kept apart here.

Key:
[1] = system: CD34+ cells; assay: NK cell expansion from CD34+ cells in three-stage culture with compound; type: cell-based, human; conditions: for support of NK expansion (and differentiation) / cell expansion compared to SR1: compound 10 μM during first 14 days, Day 35; for cell expansion compared to SR1: SR1 10 μM positive control; for expansion, differentiation and cytotoxicity profile versus SR1: PNK-007 culture
Excerpt: (§1) UCB CD34+ cells were cultivated in presence of cytokines including thrombopoietin, SCF, Flt3 ligand, IL-7, IL-15 and IL-2 for 35 days to produce three-stage NK cells, as described in Example 1. Multi-color flow cytometry was used to determine the phenotypic characteristics of three-stage NK cells.
(§2) For biological testing, the compounds were provided to culture to evaluate their effects on NK cell expansion and differentiation. Specifically, donors of CD34+ cells (StemCell Technology) were thawed and expanded in vitro following NK culture protocol. During the first 14 days of the culture, each CRL compounds was dissolved in DMSO and added to the culture at 10 μM concentration. SR1 (at 10 μM) served as a positive control compound, while DMSO alone without any compound served as a negative control. At the end of the culture on Day 35, cell expansion, natural killer (NK) cell differentiation and cytotoxicity of the cells against K562 tumor cell line were characterized. Due to the large number of the compounds, the testing was performed in two experiments, CRL1-11 and CRL 12-22. The same donors were used for each experiment. Positive and negative controls were also included in both experiments.

[2] = system: K562 tumor cells; assay: Cytotoxicity assay of compound cultured cells against K562 tumor cells; type: cell-based; conditions: 10:1 E:T ratio, both donors
Protocol: as §2
Cytotoxicity assay was run using compound cultured cells against K562 tumor cells at 10:1 effector to target ratio (FIG. 5) to evaluate cell functions.

[3] = system: CD34+ cells; assay: NK cell differentiation of compound cultured cells (flow cytometry); type: cell-based, human; conditions: compared to SR1
Excerpt: as §1, §2

[4] = system: CD34 cells; assay: CD34 cell expansion at Day 14 of the culture; type: cell-based, human; conditions: compound 10 μM
Protocol: as §2

[5] = system: multiple myeloma; conditions: cited from earlier work

Row | Compound | support of NK expansion (and differentiation) [1] | cell expansion compared to SR1 [1] | killing activity compared to cells cultured with SR1 [2] | CD56+/CD11a+ subpopulation [3] | expansion, differentiation and cytotoxicity profile versus SR1 [1] | CD34 cell expansion [4] | also measured
1 | CCC(C)Nc1cc(-c2cncc(C#N)c2)nc(NCCc2c[nH]c3ccccc23)n1 (stereo not drawn) [CRL7, 5-(2-((2-(1H-indol-3-yl)ethyl)amino)-6-(sec-butylamino)pyrimidin-4-yl)nicotinonitrile] | Except for CRL7 and CRL13, the rest of the compounds all resulted in a NK expansion; also recorded: all the compounds except CRL7 and CRL13 supported PNK-007 expansion and differentiation | – | – | – | – | – | –
2 | CCC(C)Nc1nc(NCCc2c[nH]c3ccccc23)c2ccccc2n1 (stereo not drawn) [CRL13, N^4-(2-(1H-indol-3-yl)ethyl)-N^2-(sec-butyl)quinazoline-2,4-diamine] | Except for CRL7 and CRL13, the rest of the compounds all resulted in a NK expansion; also recorded: all the compounds except CRL7 and CRL13 supported PNK-007 expansion and differentiation | – | – | – | – | – | –
3 | CC(C)c1csc2c(NCCc3c[nH]c4ccccc34)nc(-c3cncc(C#N)c3)nc12 [CRL17, 5-(4-((2-(1H-indol-3-yl)ethyl)amino)-7-isopropylthieno[3,2-d]pyrimidin-2-yl)nicotinonitrile] | – | slightly less expansion compared to SR1 | increased killing activities | increased CD56+/CD11a+ subpopulation | – | – | –
4 | CC(C)c1csc2c(NCCc3c[nH]c4ccccc34)nc(-c3cncc(F)c3)nc12 [CRL18, N-(2-(1H-indol-3-yl)ethyl)-2-(5-fluoropyridin-3-yl)-7-isopropylthieno[3,2-d]pyrimidin-4-amine] | – | slightly less expansion compared to SR1 | increased killing activities | increased CD56+/CD11a+ subpopulation | – | – | –
5 | Fc1cncc(-c2nc(NCCc3c[nH]c4ccccc34)c3occc3n2)c1 [CRL19, N-(2-(1H-indol-3-yl)ethyl)-2-(5-fluoropyridin-3-yl)furo[3,2-d]pyrimidin-4-amine] | supported cell expansion the best | – | – | – | very similar expansion, differentiation and cytotoxicity profiles as SR1 | achieved the highest CD34 cell expansion | –
6 | Cc1cncc(-c2nc(NCCc3c[nH]c4ccccc34)c3occc3n2)c1 [CRL20, N-(2-(1H-indol-3-yl)ethyl)-2-(5-methylpyridin-3-yl)furo[3,2-d]pyrimidin-4-amine] | supported cell expansion the best | – | – | – | very similar expansion, differentiation and cytotoxicity profiles as SR1 | achieved the highest CD34 cell expansion | –
7 | Cc1cncc(-c2nc(NCCc3c[nH]c4ccccc34)c3scc(C(C)C)c3n2)c1 [CRL21, N-(2-(1H-indol-3-yl)ethyl)-7-isopropyl-2-(5-methylpyridin-3-yl)thieno[3,2-d]pyrimidin-4-amine] | – | slightly less expansion compared to SR1 | increased killing activities | increased CD56+/CD11a+ subpopulation | – | – | –
8 | N#Cc1cncc(-c2nc(NCCc3c[nH]c4ccccc34)c3occc3n2)c1 [CRL22, 5-(4-((2-(1H-indol-3-yl)ethyl)amino)furo[3,2-d]pyrimidin-2-yl)nicotinonitrile] | supported cell expansion the best | – | – | – | very similar expansion, differentiation and cytotoxicity profiles as SR1 | achieved the highest CD34 cell expansion | –
9 | Nc1cccc2c1CN(C1CCC(=O)NC1=O)C2=O (stereo not drawn) [lenalidomide, 3-(4′aminoisoindoline-1′-one)-1-piperidine-2,6-dione] | – | – | – | – | – | – | ORR (VGPR or better) ([5]; 1 year post ASCT): 48%; ORR (VGPR or better) ([5]; 2 year post ASCT): 36%; hazard ratio (TTP, vs placebo) ([5]; 95% CI 0.46-0.71): 0.57; median TTP ([5]; not accounting for crossover): 57.3 months
